# Laboratory results taken from paper PMC5971566, “Population Pharmacokinetic Analyses for Rezafungin (CD101) Efficacy Using Phase 1 Data” (Antimicrobial Agents and Chemotherapy, 2018).
# Numbered stars: 1 amine (or outer) side, 2 acyl side, 3 side chain; on linkers, the order of the positions; unused ones are H or OH. Bridge positions count the residues as written; N and C are the ends. Square brackets hold non-standard residues; d marks the D form. Peptide text beside a SMILES is read from it. * marks the point of attachment. Orn(4R-OH,5R-OCH2CH2NMe3+) = C[N+](C)(C)CCO[C@@H](N[*:3])[C@H](O)C[C@H](N[*:1])C(=O)[*:2]; pTerphenylCO(4''-OnC5H11) = CCCCCOc1ccc(-c2ccc(-c3ccc(C(=O)*)cc3)cc2)cc1; hTyr(3S-OH,4S-OH) = N[C@H](C(=O)O)[C@H](O)[C@@H](O)c1ccc(O)cc1; Pro(3S-OH,4S-Me) = C[C@H]1CN[C@H](C(=O)O)[C@H]1O; Hyp = O=C(O)[C@@H]1C[C@@H](O)CN1
# Columns and labels:
# [1] = cited from earlier work
# Description: One of the unique features of rezafungin is its long half-life. […] This value far exceeds those reported for other echinocandins, which have terminal half-lives ranging from 9 to 52 h ([9][–][11]). […] Given rezafungin's long half-life, it is being evaluated ...
# [2] = Population PK model of rezafungin plasma concentrations, pooled phase 1 single- and multiple-ascending-dose i.v. data; format: in vivo, humans (healthy subjects)
# Excerpt: Data were pooled from two phase 1 studies (ClinicalTrials.gov registration no. NCT02516904 and NCT02551549) previously described by Sandison et al. ([8]). The protocols and informed consent were reviewed and approved by an appropriate institutional review board before subject enrollment. The studies were designed and monitored in compliance with the ethical principles of good clinical practice and in accordance with the Declaration of Helsinki.
# The first study (ClinicalTrials.gov registration no. NCT2516904) evaluated single i.v. doses of rezafungin. A total of 32 subjects were enrolled and randomized evenly to one of four cohorts. Within each cohort, six subjects were administered rezafungin and two subjects were administered placebo as a single 60-min i.v. infusion. A single rezafungin dose of 50, 100, 200, and 400 mg was administered to cohorts 1, 2, 3, and 4, respectively. In all cohorts, blood samples for PK evaluations were collected predose and at 0.25, 0.5, 1, 1.5, 2, 4, 6, 8, 12, 24, 48, and 120 h after the start of infusion and on days 7, 14 (±1 day), and 21 (±1 day).
# The second study (ClinicalTrials.gov registration no. NCT02551549) evaluated multiple i.v. doses of rezafungin. A total of 24 subjects were enrolled and randomized evenly to one of three cohorts. Within cohorts 1 and 2, six subjects were administered once-weekly i.v. doses of rezafungin at 100 and 200 mg, respectively, and two subjects were administered once-weekly i.v. doses of placebo, infused over 60 min on days 1 and 8. Within cohort 3, six subjects were administered once-weekly i.v. rezafungin doses of 400 mg and two subjects were administered once-weekly i.v. doses of placebo, infused over 60 min on days 1, 8, and 15. Blood samples were collected predose and at 0.5, 1, 1.5, 2, 4, 6, 8, 12, 24, 48, and 120 h after the start of each infusion and on days 7, 14 (±1 day), 21 (±1 day), and 35 (±1 day, cohort 3 only).
# (§1) All blood samples were collected using tubes with K2-EDTA. Plasma was collected by centrifugation and stored at −70°C until analysis. Samples were analyzed using a 100-μl aliquot volume and a protein-precipitation extraction procedure followed by liquid chromatography/tandem mass spectrometry analysis. The rezafungin calibration range was 10.0 ng/ml to 10,000 ng/ml, using d9-CD101 as an internal standard. The range of the assay was extended 10-fold by dilution. An AB-Sciex API 4000 system was operated in the selected reaction-monitoring mode under optimized conditions for detection of rezafungin and d9-CD101 positive ions formed by electrospray ionization. Excellent interassay accuracy and precision, as measured by the use of quality control (QC) samples, were obtained during validation. Across the range of QC samples tested (lower limit of quantitation through the high-QC range), the interassay accuracy (percent bias from nominal) ranged from 0.3% to 4.3%, while the interassay precision (percent CV) ranged from 2.7% to 5%. Dilution QC samples performed well, with −1.5% bias and an interassay precision of 3.4%.
# Candidate population PK models were fit to the pooled data using Monte Carlo parametric expectation maximization as implemented in the open-source software program S-ADAPT (version 1.5.6) ([22][–][24]). The model selection criteria used to discriminate between candidate PK models included (i) evaluation of individual and population mean parameter estimates and their precision (standard error of the mean [SEM]), (ii) graphical examination of standard goodness-of-fit plots and plots of the observed versus individual predicted concentrations, (iii) reductions in both residual variability and interindividual variability, and (iv) comparison of the objective function for nested models or the Akaike information criterion ([25]) for either nested or nonnested models.
# Interindividual variability was estimated for each structural population PK model parameter, where possible, by using an exponential-error model. […]
# C. glabrata isolates = conditions: including an echinocandin-resistant C. glabrata isolate; cited from earlier work
# Excerpt: (§2) Historically, Candida albicans has been the predominant pathogen in candidemia and invasive candidiasis infections ([1]). Despite this, Candida glabrata is now emerging as a greater concern for clinicians due to a recent increase in prevalence among candidemia and invasive candidiasis infections and the pathogen's natural predisposition for expressing azole and echinocandin resistance mutations ([2], [3]). Accordingly, the incidence of infections due to C. glabrata not only has increased more than 4-fold over the past 20 years ([4]) but also has been accompanied by an increased prevalence of b ...
# Candida albicans = conditions: including azole- and echinocandin-resistant isolates; ref not given; cited from earlier work
# Excerpt: as §2
# Candida glabrata = conditions: including azole- and echinocandin-resistant isolates; ref not given; cited from earlier work
# Excerpt: as §2
# C. albicans isolates = conditions: cited from earlier work
# Excerpt: as §2
# [3] = Stability of rezafungin in plasma samples (bioanalytical validation, LC-MS/MS); format: in vitro ADME; conditions: K2-EDTA plasma samples
# Description: as §1
# [4] = 400 mg the highest dose evaluated; cited from earlier work
# Description: One of the unique features of rezafungin is its long half-life. […] This value far exceeds those reported for other echinocandins, which have terminal half-lives ranging from 9 to 52 h ([9][–][11]). […] Moreover, the model- ...
# [5] = healthy subjects n = 42, i.v., four-compartment population PK model
# [6] = weight power function centered on 75 kg, power fixed to 0.75
# [7] = weight power function centered on 75 kg, power fixed to 1.0
smiles,measurement,setting,value
"CCCCCOc1ccc(-c2ccc(-c3ccc(C(=O)N[C@H]4C[C@@H](O)[C@@H](OCC[N+](C)(C)C)NC(=O)[C@@H]5[C@@H](O)[C@@H](C)CN5C(=O)[C@H]([C@@H](C)O)NC(=O)[C@H]([C@H](O)[C@@H](O)c5ccc(O)cc5)NC(=O)[C@@H]5C[C@@H](O)CN5C(=O)[C@H]([C@@H](C)O)NC4=O)cc3)cc2)cc1 [Rezafungin] ({pTerphenylCO(4''-OnC5H11)}-[Orn(4R-OH,5R-OCH2CH2NMe3+)]T[Hyp][hTyr(3S-OH,4S-OH)]T[Pro(3S-OH,4S-Me)]; lactam 1-C)",serious or severe adverse events,[1]; either phase 1 study,No serious or severe adverse events were observed
same,patients with moderate treatment-related adverse events,"[1]; of the 42 patients evaluated, phase 1 studies",4
same,safety signals,[1]; phase 1 studies,no safety signals were noted
same,"rezafungin clearance, typical 50-kg subject","[2]; final population PK model, allometric scaling, 50 kg",0.138 L/h
same,"rezafungin clearance, typical 100-kg subject","[2]; final population PK model, allometric scaling, 100 kg",0.232 L/h
same,"Q2, distributional clearance, population mean final estimate",[2]; [5],24.4 L/h
same,"Q3, distributional clearance, population mean final estimate",[2]; [5],0.912 L/h
same,"Q4, distributional clearance, population mean final estimate",[2]; [5],0.0739 L/h
same,"V2, volume of distribution of the peripheral compartment, population mean final estimate",[2]; [5],12.6 L
same,"V3, volume of distribution of the peripheral compartment, population mean final estimate",[2]; [5],8.75 L
same,"V4, volume of distribution of the peripheral compartment, population mean final estimate",[2]; [5],27.9 L
same,"Vc, volume of distribution of the central compartment, population mean final estimate",[2]; [5],8.94 L
same,clearance,"[2]; human, iv, healthy subjects n = 42, i.v. 60-min infusion 50-400 mg single or once weekly, plasma, linear four-compartment model, S-ADAPT, read-out: CL, total clearance, population mean final estimate (converted)",3.13 mL/min
same,"CL coefficient, population mean final estimate",[2]; [6],0.187 liter/h/75 kg
same,"Q2 coefficient, population mean final estimate",[2]; [6],24.3 liters/h/75 kg
same,"Q3 coefficient, population mean final estimate",[2]; [6],0.908 liter/h/75 kg
same,"Q4 coefficient, population mean final estimate",[2]; [6],0.0736 liter/h/75 kg
same,"V2 coefficient, population mean final estimate",[2]; [7],12.5 liters/75 kg
same,"V3 coefficient, population mean final estimate",[2]; [7],8.70 liters/75 kg
same,"V4 coefficient, population mean final estimate",[2]; [7],27.7 liters/75 kg
same,"Vc coefficient, population mean final estimate",[2]; [7],8.88 liters/75 kg
same,in vivo activity against a range of C. glabrata isolates,C. glabrata isolates,in vivo activity
same,in vitro activity against C. albicans,Candida albicans,potent in vitro activity
same,in vitro activity against C. glabrata,Candida glabrata,potent in vitro activity
same,in vivo activity against a range of C. albicans isolates,C. albicans isolates,in vivo activity
same,freeze-thaw stability,[3],stable through four freeze-thaw cycles
same,stability under frozen storage conditions,[3]; either at −20°C or at −70°C,at least 164 days
same,stability at room temperature,[3]; room temperature,at least 24 h
same,"dose proportionality of maximum concentration, AUC and half-life",[4],dose proportional up to 400 mg
